In patent publication US20260109712A1, “RIFAMYCINS FOR NONTUBERCULOUS MYCOBACTERIA” (priority 2022, published 2026):
In brackets after ≈: the same amount, converted by molar mass. Read-outs that look alike come from different tables or passages of the source.

How the values were obtained:
[1] = system: M. abscessus subsp. bolletii CCUG 50184T; test: MIC, anti-mycobacterial profiling; format: cell-based, Mycobacterium abscessus; details: for MIC: mean of two experiments
Experimental: (§1) MIC determination was carried out in 96-well plate format as previously described.^[13-14] 96-well plates were initially set up with 100 μL of 7H9 per well. For each compound, a ten-point two-fold dilution series starting at twice the desired highest concentration was dispensed onto the 96-well plates using a Tecan D300e Digital Dispenser, with the DMSO concentration normalized to 2%. M. abscessus culture grown to mid-log phase (OD600=0.4-0.6) was diluted to OD600=0.1 (1×10^7 CFU/mL). 100 μL of the resulting bacteria suspension was dispensed onto the 96-well plates containing compounds to give a final volume of 200 μL per well with an initial OD600=0.05 (5×10^6 CFU/mL) and final DMSO concentration of 1%. Final compound concentration ranges were typically 50-0.098 μM, 6.25-0.012 μM, 0.006-3.13 μM, or 0.003-1.56 μM. Untreated control wells are included on each plate that contain bacteria suspension and 1% DMSO. Plates were sealed with parafilm, stored in boxes with wet paper towels and incubated at 37° C. with shaking (110 RPM). Plates were incubated for 3 days. To determine growth, OD600 was measured using a Tecan Infinite M200 plate reader on Day 0 and Day 3. Two biological replicates were performed. Clarithromycin was included in each experiment as a positive control.
(§2) For each well on the 96-well plate, bacterial growth was calculated by subtracting the Day 0 OD600 value from the Day 3 OD600 value. For each compound series, the bacterial growth values for the untreated control wells were averaged to give the average drug-free bacterial growth. For compound-containing wells, percentage growth was calculated by dividing their growth values by the average drug-free bacterial growth for the compound series and multiplying by 100. For each compound series, we plotted percentage growth versus compound concentration. By visual inspection of the dose-response curve, we determined the MIC of a compound as the compound concentrations that would result in 90% growth inhibition.
(§3) The MIC data was determined using methods disclosed in Example 1.

[2] = system: M. abscessus subsp. massiliense CCUG 48898T; test: MIC, anti-mycobacterial profiling; format: cell-based, Mycobacterium abscessus; details: for MIC: mean of two experiments
Experimental: as §1, §2, §3

M. simiae ATCC 25275 = test: MIC, anti-mycobacterial profiling; format: cell-based, Mycobacterium simiae; details: for MIC: mean of two experiments
M. abscessus Bamboo [3] = test: MIC assay, clinical isolate Bamboo; format: cell-based, Mycobacterium abscessus; details: for MIC: broth, M. abscessus Bamboo, Table 16, read-out: MIC
RFB-R1 M. abscessus = test: microbe, parasite or virus in culture; format: cell-based, Mycobacterium abscessus; details: for MIC: Mycobacteroides abscessus, read-out: RFB-R1 M. abscessus MIC
M. xenopi ATCC 19250 = test: MIC, anti-mycobacterial profiling; format: cell-based, Mycobacterium xenopi; details: for MIC: mean of two experiments
M. kansasii ATCC 12478 = test: MIC, anti-mycobacterial profiling; format: cell-based, Mycobacterium kansasii; details: for MIC: mean of two experiments
M. abscessus Bamboo [4] = test: Caseum surrogate MBC90 (cMBC90) kill assay; format: cell-based, Mycobacterium abscessus; details: for cMBC90/bMBC90: 5-day assays; for MBC: read-out: cMBC90
Text: (§4) The surrogate matrix was generated as described previously from cultured THP-1 cells (ATCC TIB-202) (mBio, 2023, 14, e0059823). M. abscessus exponential cultures grown in Middlebrook 7H9 broth (Sigma Aldrich) (OD600 0.6-0.9) were spun down and resuspended in water to an OD600 of 7, 0.7, and 0.07. As described for the M. tuberculosis caseum surrogate assay (mnBio, 2023, 14, e0059823), the bacterial suspensions (at three different dilutions resulting in ˜10^9, 10^8, and 10^7 starting CFU/mL, represented by circle, square, and triangle indicators respectively) were added to the caseum surrogate in the ratio 2:1 (vol/wt), briefly homogenized with 1.4-mm zirconia beads, divided evenly into nine 1.5-mL microcentrifuge tubes, and incubated as standing cultures at 37° C. At the indicated time points, tubes were removed and used for CFU enumeration by plating on Middlebrook 7H11 agar (Sigma Aldrich). Separate tubes were used at each time point. To determine the kill curves, cultures with a starting CFU/mL of 10^8 were used (resulting in the middle curve with square indicators). Arrows indicate the time points when drugs were added and the end of the treatment. The experiment was repeated three times independently, yielding similar results. A representative example is shown. Dots and error bars represent means and standard deviations of three technical replicates, respectively.
FIGS. 29A-29M show the Dose-response kill curves against M. abscessus Bamboo in caseum surrogate. M. abscessus cultures were set up as described in the legend of FIG. 28. Bacterial cell suspensions were added to yield a starting CFU of 10^8/mL (FIG. 28, middle growth curve with square indicators). […] The shaded areas indicate drug concentration windows achieved in caseum in vivo. (Antimicrob. Agents Chemother., 2021, 65, e0050621; Antimicrob. Agents Chemother., 2022, 66, e0221221; PLoS Med., 2019, 16, e1002773; ACS Infect. Dis., 2016, 2, 251-267). The experiment was repeated twice independently, yielding similar results. A representative example is shown. Dots and error bars represent means and standard deviations of three technical replicates, respectively. Horizontal dotted lines indicate the cutoff for 1 log reduction in CFU compared to 10-day drug-free control culture. The cMBC90 values shown in Table 16 are the drug concentrations that reduce CFU by 90% relative to the CFU of drug-free controls at day 10. Since the cultures were in the stationary phase on day 5 when drug treatment started, the CFUs of the drug-free cultures at day 10 were similar to the CFUs of the drug-free cultures at day 5 (FIG. 28).
as §4, with “(doi: 10.1128/mbio.00598-23).” for “(mBio, 2023, 14, e0059823).”, “(doi: 10.1128/mbio.00598-23),” for “(mnBio, 2023, 14, e0059823),”, “CFU/mL)” for “CFU/mL, represented by circle, square, and triangle indicators respectively)”, “curves for the drugs,” for “curves,”, “used.” for “used (resulting in the middle curve with square indicators). Arrows indicate the time points when drugs were added and the end of the treatment.”, “results.” for “results. A representative example is shown. Dots and error bars represent means and standard deviations of three technical replicates, respectively.”
The experiment was repeated twice independently, yielding similar results. A representative example is shown. The cMBC90 values shown in Table 16 are the drug concentrations that reduce CFU by 90% relative to the CFU of drug-free controls at day 10. […]

[5] = Mycobacterium simiae, ATCC25275
[6] = Mycobacterium xenopi, ATCC19250
[7] = Mycobacterium kansasii, ATCC12478
[8] = Mycobacteroides abscessus, 120 h

SMILES: CO[C@H]1/C=C/O[C@@]2(C)Oc3c(C)c(O)c4c(c3C2=O)C2=NC3(CCN(CC(C)C)CC3)NC2=C(NC(=O)/C(C)=C/C=C/[C@H](C)[C@H](O)[C@@H](C)[C@@H](O)[C@@H](C)[C@H](OC(=O)c2cccnc2)[C@@H]1C)C4=O [5m, 25-O-(3-pyridinecarbonyl)-25-O-desacetyrifabutin]
- Fold improvement (RFB-5m vs RFB) [1]: 31
- MIC [1]: 0.07 µM (≈ 0.0637 µg/mL)
- Fold improvement (RFB-5m vs RFB) [2]: 12
- MIC [2]: 0.05 µM (≈ 0.0455 µg/mL)
- Fold improvement (RFB-5m vs RFB) (M. simiae ATCC 25275): 95
- MIC (M. simiae ATCC 25275): 0.2 µM (≈ 0.182 µg/mL)
- Mab Bamboo MIC (M. abscessus Bamboo [3]; 90% inhibition of bacterial growth): 0.023 µM
- MIC (M. abscessus Bamboo [3]): 0.02 µM (≈ 0.0182 µg/mL)
- RFB-R1 M. abscessus MIC (RFB-R1 M. abscessus; rpoB H447Y mutant, 90% inhibition): >100 µM
- Fold improvement (RFB-5m vs RFB) (M. xenopi ATCC 19250): 4.0
- MIC (M. xenopi ATCC 19250): 0.005 µM (≈ 0.00455 µg/mL)
- Fold improvement (RFB-5m vs RFB) (M. kansasii ATCC 12478): 1.0
- MIC (M. kansasii ATCC 12478): 0.008 µM (≈ 0.00728 µg/mL)
- cMBC90/bMBC90 (M. abscessus Bamboo [4]): 12.5
- MBC (M. abscessus Bamboo [4]; caseum surrogate, 5 days, 90% CFU reduction vs drug-free control): 2 µM (≈ 1.82 µg/mL)

SMILES: CC[C@H]1OC(=O)[C@H](C)[C@@H](O[C@H]2C[C@@](C)(OC)[C@@H](O)[C@H](C)O2)[C@H](C)[C@@H](O[C@@H]2O[C@H](C)C[C@H](N(C)C)[C@H]2O)[C@](C)(OC)C[C@@H](C)C(=O)[C@H](C)[C@@H](O)[C@]1(C)O [clarithromycin, reference compound]
- MIC ([1]; Mycobacteroides abscessus): 4.3 µM (≈ 3.22 µg/mL)
- MIC ([2]; Mycobacteroides abscessus): 1.1 µM (≈ 0.823 µg/mL)
- MIC (M. simiae ATCC 25275; [5]): 12 µM (≈ 8.98 µg/mL)
- MIC (M. abscessus Bamboo [3]; Mycobacteroides abscessus): 0.4 µM (≈ 0.299 µg/mL)
- MIC (RFB-R1 M. abscessus): 2.1 µM (≈ 1.57 µg/mL)
- MIC (M. xenopi ATCC 19250; [6]): 0.06 µM (≈ 0.0449 µg/mL)
- MIC (M. kansasii ATCC 12478; [7]): 0.3 µM (≈ 0.224 µg/mL)
- cMBC90/bMBC90 (M. abscessus Bamboo [4]): 64
- MBC (M. abscessus Bamboo [4]; [8]): 128 µM (≈ 95.7 µg/mL)

SMILES: CO[C@H]1/C=C/O[C@@]2(C)Oc3c(C)c(O)c4c(c3C2=O)C2=NC3(CCN(CC(C)C)CC3)NC2=C(NC(=O)/C(C)=C\C=C\[C@H](C)[C@H](O)[C@@H](C)[C@@H](O)[C@@H](C)[C@H](OC(C)=O)[C@@H]1C)C4=O [rifabutin, reference compound]
- MIC ([1]; Mycobacteroides abscessus): 2.2 µM (≈ 1.86 µg/mL)
- MIC ([2]; Mycobacteroides abscessus): 0.6 µM (≈ 0.508 µg/mL)
- MIC (M. simiae ATCC 25275; [5]): 19 µM (≈ 16.1 µg/mL)
- MIC (M. abscessus Bamboo [3]; Mycobacteroides abscessus): 3 µM (≈ 2.54 µg/mL)
- MIC (RFB-R1 M. abscessus): > 100 µM
- MIC (M. xenopi ATCC 19250; [6]): 0.02 µM (≈ 0.0169 µg/mL)
- MIC (M. kansasii ATCC 12478; [7]): 0.008 µM (≈ 0.00678 µg/mL)
- cMBC90/bMBC90 (M. abscessus Bamboo [4]): 16
- MBC (M. abscessus Bamboo [4]; [8]): 72 µM (≈ 61 µg/mL)
